According to patent publication US20070160725A1, “Use of extracts and compounds of allium-genus plants as preservatives in the food and agri-food industries” (MOUSALA, S., L., priority 2004, published 2007):
Like-named read-outs stand apart in the source and are kept apart here.

Legend:
Test in all cases: agar diffusion, inhibition halo
Assay type in all cases: cell-based
[1] = test system: Geotrichum candidum CECT 1902
Experimental: (§1) In order to evaluate the antimicrobial activity the agar diffusion technique with cellulose discs of 6 mm in diameter impregnated with the different active ingredient testing doses was used.
(§2) Antifungal capacity was assessed against suspensions of […], harvested from pure cultures of the selected molds and against suspensions of 10^7 cells/ml for the case of yeasts. The culture medium used was the 2% Sabouraud-glucose medium (Merck).
(§3) After incubating the culture dishes inoculated with the different organisms at the corresponding temperatures, the microbial inhibition halos that appeared were measured, and said measurement includes the 6 mm diameter of the cellulose discs.

[2] = test system: Penicillium italicum CECT 2294
Experimental: as §1, §2, §3

[3] = test system: Trichoderma aureoviride CECT 20102
Experimental: as §1, §2, §3

[4] = test system: Mucor plumbeus, isolated from cheese; settings: 1000 ppm
Experimental: as §1, §2, §3

[5] = test system: Bacillus subtilis, isolated from paprika; settings: 1000 ppm
Experimental: as §1
(§4) Antibacterial capacity was assessed against suspensions of 10^6 cells/ml, prepared from pure young cultures of each one of the strains to be tested. The culture medium used was Müller-Hinton medium (Merck).
as §3

[6] = test system: Salmonella typhimurium, ATCC 13311; settings: 1000 ppm
Experimental: as §1, §4, §3

[7] = test system: Staphylococcus aureus, isolated from hamburgers; settings: 1000 ppm
Experimental: as §1, §4, §3

[8] = test system: Rhizopus stolonifer CECT 2344
Experimental: as §1, §2, §3

[9] = Penicillium italicum, CECT2294, 1000 ppm of commercial product, read-out: inhibition halo diameter
[10] = Penicillium italicum, CECT2294, 2000 ppm of commercial product, read-out: inhibition halo diameter
[11] = Penicillium italicum, CECT2294, 4000 ppm of commercial product, read-out: inhibition halo diameter
[12] = Penicillium italicum, CECT2294, read-out: inhibition halo diameter
[13] = 4000 ppm (active ingredient, dose in ppm)
[14] = 6000 ppm (active ingredient, dose in ppm)

Q: What does the source list for `C=CCOC(Cn1ccnc1)c1ccc(Cl)cc1Cl` (stereo not shown) [Imazalil]?
A: inhibition halo diameter ([1]; 1000 ppm of commercial product): 20 mm; inhibition halo diameter ([1]; 2000 ppm of commercial product): 23 mm; inhibition halo diameter ([1]; 4000 ppm of commercial product): 26 mm; zone of inhibition at 1000 µg/mL [2, 9]: 46 mm; zone of inhibition at 2000 µg/mL [2, 10]: 47 mm; zone of inhibition at 4000 µg/mL [2, 11]: 50 mm; inhibition halo diameter ([3]; 1000 ppm of commercial product): 20 mm; inhibition halo diameter ([3]; 2000 ppm of commercial product): 25 mm; inhibition halo diameter ([3]; 4000 ppm of commercial product): 31 mm

Q: With `CCCSS(=O)(=O)CCC` [PTSO, Propyl Propylthiosulfonate] as the molecule, how does the inhibition halo diameter [4] read?
A: Its inhibition halo diameter is 13 mm.

Q: And the zone of inhibition at 1000 ppm ([2]; Penicillium italicum, CECT2294, 1000 ppm, read-out: inhibition halo diameter)?
A: Its zone of inhibition at 1000 ppm is 65 mm.

Q: What about the inhibition halo diameter [5] of the same molecule?
A: The inhibition halo diameter was 65 mm.

Q: And the inhibition halo diameter [6]?
A: The inhibition halo diameter was 31 mm.

Q: What about the inhibition halo diameter [7] of the same molecule?
A: The inhibition halo diameter was 55 mm.

Q: Which inhibition halo diameter ([1]; 1000 ppm of commercial product) does the source give for `CCCN(CCOc1c(Cl)cc(Cl)cc1Cl)C(=O)n1ccnc1` [Prochloraz] here?
A: Its inhibition halo diameter is 0 mm.

Q: What about the inhibition halo diameter ([1]; 2000 ppm of commercial product) of the same molecule?
A: Its inhibition halo diameter is 0 mm.

Q: And the inhibition halo diameter ([1]; 4000 ppm of commercial product)?
A: The inhibition halo diameter was 0 mm.

Q: What about the zone of inhibition at 1000 µg/mL [2, 12] of the same molecule?
A: The zone of inhibition at 1000 µg/mL was 31 mm.

Q: What about the zone of inhibition at 2000 µg/mL [2, 12] of the same molecule?
A: The zone of inhibition at 2000 µg/mL was 35 mm.

Q: What about the zone of inhibition at 4000 µg/mL [2, 12] of the same molecule?
A: The zone of inhibition at 4000 µg/mL was 35 mm.

Q: What about the inhibition halo diameter ([3]; 1000 ppm of commercial product) of the same molecule?
A: Its inhibition halo diameter is 8 mm.

Q: And the inhibition halo diameter ([3]; 2000 ppm of commercial product)?
A: Its inhibition halo diameter is 11 mm.

Q: And the inhibition halo diameter ([3]; 4000 ppm of commercial product)?
A: Its inhibition halo diameter is 12 mm.

Q: What does the source list for `c1ccc2[nH]c(-c3cscn3)nc2c1` [Thiabendazole]?
A: inhibition halo diameter ([1]; 1000 ppm of commercial product): 0 mm; inhibition halo diameter ([1]; 2000 ppm of commercial product): 0 mm; inhibition halo diameter ([1]; 4000 ppm of commercial product): 0 mm; zone of inhibition at 1000 µg/mL [2, 9]: > 40 mm; zone of inhibition at 2000 µg/mL [2, 10]: > 40 mm; zone of inhibition at 4000 µg/mL [2, 11]: > 40 mm; inhibition halo diameter ([3]; 1000 ppm of commercial product): 24 mm; inhibition halo diameter ([3]; 2000 ppm of commercial product): 26 mm; inhibition halo diameter ([3]; 4000 ppm of commercial product): 26 mm

Q: Which results are given for `Oc1ccccc1-c1ccccc1` [o-Phenyl phenol]?
A: inhibition halo diameter [1, 13]: 45 mm; inhibition halo diameter [1, 14]: 47 mm; zone of inhibition at 4000 ppm [2, 12]: 45 mm; zone of inhibition at 6000 ppm [2, 12]: 45 mm; inhibition halo diameter [8, 13]: 14 mm; inhibition halo diameter [8, 14]: 15 mm; inhibition halo diameter [3, 13]: 40 mm; inhibition halo diameter [3, 14]: 42 mm

Q: How did the inhibition halo diameter ([1]; 1000 ppm of commercial product) turn out when Guazatine was run?
A: Its inhibition halo diameter is 27 mm.

Q: And the inhibition halo diameter ([1]; 2000 ppm of commercial product)?
A: Its inhibition halo diameter is 30 mm.

Q: What about the inhibition halo diameter ([1]; 4000 ppm of commercial product) of the same molecule?
A: The inhibition halo diameter was 35 mm.

Q: And the inhibition halo diameter ([2]; 1000 ppm of commercial product)?
A: Its inhibition halo diameter is 10 mm.

Q: And the inhibition halo diameter ([2]; 2000 ppm of commercial product)?
A: Its inhibition halo diameter is 12 mm.

Q: And the inhibition halo diameter ([2]; 4000 ppm of commercial product)?
A: The inhibition halo diameter was 15 mm.

Q: What about the inhibition halo diameter ([3]; 1000 ppm of commercial product) of the same molecule?
A: Its inhibition halo diameter is 25 mm.

Q: And the inhibition halo diameter ([3]; 2000 ppm of commercial product)?
A: The inhibition halo diameter was 30 mm.

Q: What about the inhibition halo diameter ([3]; 4000 ppm of commercial product) of the same molecule?
A: The inhibition halo diameter was 35 mm.
